US8129371B2, “Thienopyrimidine and pyrazolopyrimidine compounds and their use as mTOR kinase and PI3 kinase inhibitors” (Wyeth LLC, priority 2007, dated 2012)
pIC50: −log10 of the molar value. Like-named read-outs stand apart in the source and are kept apart here.

Key:
Human mTOR (FLAG-TOR) = target: T1, Human mTOR (FLAG-TOR) (Homo sapiens, UniProt P42345); experiment: Human mTOR kinase assay with purified enzyme, DELFIA format; assay type: biochemical
T1 construct: FLAG
Procedure, shortened: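 DELFIA readout: Eu-anti-P(T389)-S6K antibody (40 ng/mL, 1 h) on captured His6-S6K from the stopped reaction. Kinase step used purified FLAG-tagged human mTOR with test compound in HEPES (pH 7.4)/MnCl2/DTT buffer, 2 h at room temperature (linear 1–6 h), terminated by EDTA/EGTA.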

PI3K [1] = target: T2, PI3K (Homo sapiens, UniProt P42336); experiment: Fluorescence polarization assay for PI3K; assay type: biochemical; settings: read-out: PI3 Kinase α IC50
T2 construct: PI3 Kinase α IC50; other: PI3 Kinase α; other: PI3 Kinase α isoform, fluorescence polarization
Procedure, shortened: (§1)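 Fluorescence-polarization competition readout: after 30–60 min of PIP2/ATP turnover in 1% DMSO, a stop mix with GST-GRP (70 nM) and red probe (10 nM) was added.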

PI3K [2] = target: T3, PI3K (Homo sapiens, UniProt P48736); experiment: Fluorescence polarization assay for PI3K; assay type: biochemical; settings: read-out: PI3 Kinase γ IC50
T3 construct: PI3 Kinase γ IC50; other: PI3 Kinase γ; other: PI3 Kinase γ isoform, fluorescence polarization
Procedure, shortened: as §1

prostate line LNCap = experiment: In vitro cell culture growth assay (MTS), LNCap; assay type: cell-based; settings: Homo sapiens, LNCaP, 72 h, LNCap cells, three days after drug treatment
Procedure, shortened: (§2)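 Cells were plated and, one day later, treated with inhibitors. Three days after treatment, viable cell density was measured by MTS dye conversion, read as absorbance at 490 nm. Effects are expressed as percent of control growth versus vehicle-treated cells on the same plate.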

breast line MDA468 = experiment: In vitro cell culture growth assay (MTS), MDA468; assay type: cell-based; settings: Homo sapiens, 72 h, MDA468 cells, three days after drug treatment
Procedure, shortened: as §2

[3] = purified human mTOR enzyme, DELFIA format
[4] = PI3 Kinase α isoform, fluorescence polarization
[5] = PI3 Kinase γ isoform, fluorescence polarization

T2 sequence (P42336 whole entry, canonical isoform): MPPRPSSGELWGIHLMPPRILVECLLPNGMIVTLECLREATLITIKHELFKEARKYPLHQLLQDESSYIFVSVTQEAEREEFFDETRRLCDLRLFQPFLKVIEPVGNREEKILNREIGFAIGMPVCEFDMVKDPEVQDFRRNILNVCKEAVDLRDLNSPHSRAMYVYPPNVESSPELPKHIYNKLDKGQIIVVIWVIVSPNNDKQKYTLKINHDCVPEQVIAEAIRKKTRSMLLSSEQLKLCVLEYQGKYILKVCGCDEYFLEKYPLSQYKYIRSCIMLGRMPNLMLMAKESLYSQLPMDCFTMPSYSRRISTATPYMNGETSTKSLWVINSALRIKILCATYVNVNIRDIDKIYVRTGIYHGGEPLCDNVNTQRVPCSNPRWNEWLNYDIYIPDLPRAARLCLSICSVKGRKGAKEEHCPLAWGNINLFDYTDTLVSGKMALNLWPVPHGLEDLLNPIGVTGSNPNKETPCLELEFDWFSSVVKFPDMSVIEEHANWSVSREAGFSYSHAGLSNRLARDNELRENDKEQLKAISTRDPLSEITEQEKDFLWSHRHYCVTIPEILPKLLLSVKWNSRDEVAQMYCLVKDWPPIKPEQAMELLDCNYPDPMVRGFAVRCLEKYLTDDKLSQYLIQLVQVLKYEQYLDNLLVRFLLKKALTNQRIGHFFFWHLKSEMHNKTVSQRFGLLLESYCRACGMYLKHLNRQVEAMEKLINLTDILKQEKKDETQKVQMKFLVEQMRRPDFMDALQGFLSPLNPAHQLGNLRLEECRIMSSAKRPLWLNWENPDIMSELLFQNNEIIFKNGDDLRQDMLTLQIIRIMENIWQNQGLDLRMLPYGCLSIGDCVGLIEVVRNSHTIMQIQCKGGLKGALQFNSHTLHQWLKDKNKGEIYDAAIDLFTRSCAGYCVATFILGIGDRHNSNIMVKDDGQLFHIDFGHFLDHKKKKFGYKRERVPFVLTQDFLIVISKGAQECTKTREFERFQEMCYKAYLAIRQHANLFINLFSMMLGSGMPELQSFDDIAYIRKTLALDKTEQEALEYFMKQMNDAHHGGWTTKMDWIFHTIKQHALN
T3 sequence (P48736 whole entry, canonical isoform): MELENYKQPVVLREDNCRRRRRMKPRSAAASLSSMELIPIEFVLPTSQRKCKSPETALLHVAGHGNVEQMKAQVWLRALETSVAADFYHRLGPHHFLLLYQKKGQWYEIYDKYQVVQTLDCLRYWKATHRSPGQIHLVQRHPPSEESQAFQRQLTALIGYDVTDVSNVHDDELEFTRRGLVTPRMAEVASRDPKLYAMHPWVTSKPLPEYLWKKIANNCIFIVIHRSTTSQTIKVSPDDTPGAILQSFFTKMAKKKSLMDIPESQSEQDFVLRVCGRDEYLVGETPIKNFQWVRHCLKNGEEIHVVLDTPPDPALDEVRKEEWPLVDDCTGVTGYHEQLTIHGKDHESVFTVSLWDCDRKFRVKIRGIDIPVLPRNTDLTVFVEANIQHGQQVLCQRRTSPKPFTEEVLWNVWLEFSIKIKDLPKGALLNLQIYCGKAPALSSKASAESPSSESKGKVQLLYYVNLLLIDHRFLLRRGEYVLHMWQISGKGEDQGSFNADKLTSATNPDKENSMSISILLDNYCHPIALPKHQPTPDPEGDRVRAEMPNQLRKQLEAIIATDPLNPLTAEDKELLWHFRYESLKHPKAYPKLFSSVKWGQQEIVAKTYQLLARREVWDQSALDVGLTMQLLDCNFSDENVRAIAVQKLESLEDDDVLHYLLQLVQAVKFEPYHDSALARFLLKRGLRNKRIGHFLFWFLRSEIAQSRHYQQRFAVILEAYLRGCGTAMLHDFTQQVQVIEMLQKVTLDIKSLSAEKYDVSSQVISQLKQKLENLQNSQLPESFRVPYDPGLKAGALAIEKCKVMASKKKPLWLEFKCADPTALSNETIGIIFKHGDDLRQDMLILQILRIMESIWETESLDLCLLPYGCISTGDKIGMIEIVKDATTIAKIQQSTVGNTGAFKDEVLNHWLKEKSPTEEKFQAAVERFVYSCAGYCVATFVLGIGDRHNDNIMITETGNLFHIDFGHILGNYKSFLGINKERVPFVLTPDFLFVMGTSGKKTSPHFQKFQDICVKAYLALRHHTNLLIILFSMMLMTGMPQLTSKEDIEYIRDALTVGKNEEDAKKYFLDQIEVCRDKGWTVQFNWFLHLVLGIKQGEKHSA

Row | Structure (SMILES) | pIC50 (Human mTOR (FLAG-TOR)) | pIC50 (PI3K [1]; PI3 Kinase α) | pIC50 (PI3K [2]; PI3 Kinase γ) | pIC50 (prostate line LNCap) | pIC50 (breast line MDA468) | pIC50 (Human mTOR (FLAG-TOR); [3]) | pIC50 (PI3K [1]; [4]) | pIC50 (PI3K [2]; [5])
1 | CC(C)(C)n1ncc2c(N3CC4CCC(C3)O4)nc(-c3ccc(NC(=O)NCCF)cc3)nc21 [Example 95] | 9.21 | 5.98 | < 5.00 | 7.77 | 6.55 | – | – | –
2 | CCNC(=O)Nc1ccc(-c2nc(N3CC4CCC(C3)O4)c3cnn(C4CCNCC4)c3n2)cc1 [Example 28, 1-ethyl-3-{4-[4-(8-oxa-3-azabicyclo[3.2.1]oct-3-yl)-1-piperidin-4-yl-1H-pyrazolo[3,4-d]pyrimidin-6-yl]phenyl}urea] | 8.74 | 5.67 | 5.05 | 6.10 | 5.89 | – | – | –
3 | CCNC(=O)Nc1ccc(-c2nc(N3CC4CCC(C3)O4)c3cnn(Cc4ccccc4)c3n2)cc1 [Example 78, 1-{4-[1-benzyl-4-(8-oxa-3-azabicyclo[3.2.1]oct-3-yl)-1H-pyrazolo[3,4-d]pyrimidin-6-yl]phenyl}-3-ethylurea] | 8.59 | < 5.00 | < 5.00 | 6.77 | 5.98 | – | – | –
4 | O=C(Nc1ccc(-c2nc(N3C[C@@H]4C[C@H]3CO4)c3cnn(CC(F)(F)F)c3n2)cc1)Nc1ccc(N2CCOCC2)nc1 [Example 299, 1-(6-morpholin-4-ylpyridin-3-yl)-3-(4-{4-[(1S,4S)-2-oxa-5-azabicyclo[2.2.1]hept-5-yl]-1-(2,2,2-trifluoroethyl)-1H-pyrazolo[3,4-d]pyrimidin-6-yl}phenyl)urea] | – | – | – | 8.00 | 7.38 | 8.55 | 4.99 | < 5.00
5 | O=C(Nc1ccc(-c2nc(N3C4CCC3COC4)c3cnn(CC(F)(F)F)c3n2)cc1)Nc1cccnc1 [Example 268, 1-{4-[4-(3-oxa-8-azabicyclo[3.2.1]oct-8-yl)-1-(2,2,2-trifluoroethyl)-1H-pyrazolo[3,4-d]pyrimidin-6-yl]phenyl}-3-pyridin-3-ylurea] | 9.70 | 6.64 | 5.52 | > 9.00 | 8.52 | – | – | –
6 | Oc1cccc(-c2nc(N3CC4CCC(C3)O4)c3cnn(-c4ccccc4)c3n2)c1 [Example 102, 3-[4-(8-oxa-3-azabicyclo[3.2.1]oct-3-yl)-1-phenyl-1H-pyrazolo[3,4-d]pyrimidin-6-yl]phenol] | 7.80 | 5.93 | 5.11 | 5.89 | 5.30 | – | – | –
7 | CCOC(=O)N1CCC(n2ncc3c(N4CC5CCC(C4)O5)nc(-c4ccc(NC(=O)NC5CCNCC5)cc4)nc32)CC1 [Example 103, ethyl 4-[4-(8-oxa-3-azabicyclo[3.2.1]oct-3-yl)-6-{4-[(piperidin-4-ylcarbamoyl)amino]phenyl}-1H-pyrazolo[3,4-d]pyrimidin-1-yl]piperidine-1-carboxylate] | 8.17 | 6.06 | 5.96 | 5.30 | 4.96 | – | – | –
8 | CN(C)CCOc1ccc(NC(=O)Nc2ccc(-c3nc(N4CC5CCC(C4)O5)c4cnn(CCC#N)c4n3)cc2)cc1 [Example 224, 1-{4-[1-(2-cyanoethyl)-4-(8-oxa-3-azabicyclo[3.2.1]oct-3-yl)-1H-pyrazolo[3,4-d]pyrimidin-6-yl]phenyl}-3-{4-[2-(dimethylamino)ethoxy]phenyl}urea] | 9.13 | 6.81 | 5.58 | 8.52 | 7.92 | – | – | –
9 | CC(=O)N1CC2CN(c3nc(-c4ccc(NC(=O)Nc5ccncc5)cc4)nc4c3cnn4CC(F)(F)F)CC(C1)O2 [Example 339, 1-{4-[4-(7-acetyl-9-oxa-3,7-diazabicyclo[3.3.1]non-3-yl)-1-(2,2,2-trifluoroethyl)-1H-pyrazolo[3,4-d]pyrimidin-6-yl]phenyl}-3-pyridin-4-ylurea] | – | – | – | < 4.22 | < 4.22 | < 5.20 | 5.03 | < 5.00
10 | O=C(Nc1ccc(-c2nc(N3CC4CCC(C3)O4)c3cnn(CCO)c3n2)cc1)NC1CC1 [Example 197, 1-cyclopropyl-3-{4-[1-(2-hydroxyethyl)-4-(8-oxa-3-azabicyclo[3.2.1]oct-3-yl)-1H-pyrazolo[3,4-d]pyrimidin-6-yl]phenyl}urea] | 8.55 | 5.87 | 4.92 | 6.40 | 5.85 | – | – | –
11 | CN(C)CCn1ncc2c(N3CC4CCC(C3)O4)nc(-c3ccc(NC(=O)NC4CC4)cc3)nc21 [Example 161, 1-cyclopropyl-3-(4-{1-[2-(dimethylamino)ethyl]-4-(8-oxa-3-azabicyclo[3.2.1]oct-3-yl)-1H-pyrazolo[3,4-d]pyrimidin-6-yl}phenyl)urea] | 8.08 | 5.44 | < 5.00 | 6.68 | 5.66 | – | – | –
12 | CN1CCN(Cc2cc3nc(-c4ccc(NC(=O)Nc5ccc(C(N)=O)cc5)cc4)nc(N4CC5CCC(C4)O5)c3s2)CC1 [Example 428, 4-{[(4-{6-[(4-methylpiperazin-1-yl)methyl]-4-(8-oxa-3-azabicyclo[3.2.1]oct-3-yl)thieno[3,2-d]pyrimidin-2-yl}phenyl)carbamoyl]amino}benzamide] | – | – | – | 6.62 | 6.96 | 8.82 | 7.47 | 6.09
13 | CN(C)c1cccc(NC(=O)Nc2ccc(-c3nc(N4CC5CCC(C4)O5)c4cnn(CC(F)(F)F)c4n3)cc2)c1 [Example 257, 1-[3-(dimethylamino)phenyl]-3-{4-[4-(8-oxa-3-azabicyclo[3.2.1]oct-3-yl)-1-(2,2,2-trifluoroethyl)-1H-pyrazolo[3,4-d]pyrimidin-6-yl]phenyl}urea] | 8.74 | 6.46 | 5.37 | > 9.00 | 8.52 | – | – | –
14 | O=C(Nc1ccc(-c2nc(N3CC4CCC(C3)O4)c3cnn([C@H]4CC[C@@H](O)CC4)c3n2)cc1)NC1CC1 (relative stereo) [Example 402, 1-cyclopropyl-3-{4-[1-(cis-4-hydroxycyclohexyl)-4-(8-oxa-3-azabicyclo[3.2.1]oct-3-yl)-1H-pyrazolo[3,4-d]pyrimidin-6-yl]phenyl}urea] | – | – | – | 8.70 | 7.40 | 9.39 | 5.53 | < 5.00
15 | COCC(COC)n1ncc2c(N3CC4CCC(C3)O4)nc(-c3ccc(NC(=O)Nc4ccc(N5CCN(C)CC5)cc4)cc3)nc21 [Example 327, 1-(4-{1-[2-methoxy-1-(methoxymethyl)ethyl]-4-(8-oxa-3-azabicyclo[3.2.1]oct-3-yl)-1H-pyrazolo[3,4-d]pyrimidin-6-yl}phenyl)-3-[4-(4-methylpiperazin-1-yl)phenyl]urea] | – | – | – | 8.52 | 7.30 | 8.43 | 6.12 | 5.46
16 | CCn1ncc2c(N3CC4CCC(C3)O4)nc(-c3ccc(NC(=O)Nc4ccc(C(=O)NN(C)C)cc4)cc3)nc21 [Example 289, 1-{4-[(2,2-dimethylhydrazino)carbonyl]phenyl}-3-{4-[1-ethyl-4-(8-oxa-3-azabicyclo[3.2.1]oct-3-yl)-1H-pyrazolo[3,4-d]pyrimidin-6-yl]phenyl}urea] | 9.48 | 6.96 | 6.15 | > 9.00 | > 9.00 | – | – | –
17 | COC(=O)N1CCC(n2ncc3c(N4CC5CCC(C4)O5)nc(-c4ccc(NC(=O)OCCN5CCN(C)CC5)cc4)nc32)CC1 [Example 118, methyl 4-{6-[4-({[2-(4-methylpiperazin-1-yl)ethoxy]carbonyl}amino)phenyl]-4-(8-oxa-3-azabicyclo[3.2.1]oct-3-yl)-1H-pyrazolo[3,4-d]pyrimidin-1-yl}piperidine-1-carboxylate] | < 6.10 | 5.09 | < 5.00 | 5.55 | 5.33 | – | – | –
18 | COC(=O)Nc1ccc(-c2nc(N3CC4CCC(C3)O4)c3sccc3n2)cc1 [Example 416, methyl {4-[4-(8-oxa-3-azabicyclo[3.2.1]oct-3-yl)thieno[3,2-d]pyrimidin-2-yl]phenyl}carbamate] | – | – | – | 5.73 | 5.04 | 8.07 | 5.21 | < 5.00
19 | CCn1ncc2c(N3CC4CCC(C3)O4)nc(-c3ccc(NC(=O)NCCCN(C)C)cc3)nc21 [Example 177, 1-[3-(dimethylamino)propyl]-3-{4-[1-ethyl-4-(8-oxa-3-azabicyclo[3.2.1]oct-3-yl)-1H-pyrazolo[3,4-d]pyrimidin-6-yl]phenyl}urea] | 7.16 | 5.78 | < 5.00 | 5.92 | 5.35 | – | – | –
20 | CS(=O)(=O)N1CCN(Cc2cc3nc(-c4ccc(NC(=O)Nc5ccccc5)cc4)nc(N4CC5CCC(C4)O5)c3s2)CC1 [Example 432, 1-{4-[6-{[4-(methylsulfonyl)piperazin-1-yl]methyl}-4-(8-oxa-3-azabicyclo[3.2.1]oct-3-yl)thieno[3,2-d]pyrimidin-2-yl]phenyl}-3-phenylurea] | – | – | – | 8.40 | 7.43 | 8.89 | 8.22 | 6.28
